This is an account of results in US20230141863A1, “Small Molecule Inhibitors Targeting the Sodium Channel Tamoxifen Receptor and Uses Thereof” (Northwestern University, priority 2021, published 2023).

In the assay the target is T1, human Nav1.7 (Homo sapiens, UniProt Q15858).
T1 construct: expressed in transfected cells; host or cells: HEK cells, transient transfection with lipofectamine
The experiment in a line: Voltage clamp of heterologously expressed Nav1.7. The class given is cell-based. As to conditions: Hill fit, printed for ND-Tam and 4OH-Tam together. The procedure: While no clear drug-receptor interactions were determined within Siteout, the S6 E220 side chains formed hydrogen bond interactions with the ether and amine moieties of the ND-Tam molecules found at Sitein. […] After structural alignment of the crystalized NavMs-Tam complex with the cryo EM Nav1.7+b1+b2 channel coordinates, the S6 side chain hydroxyl in DII (S969) and the carboxyl side chains in DIII (E1458) and DIV (D1761) observed in the human channel were nearly superimposable with E220 of the prokaryotic Nav subunits. In addition, the distances from the drug ether and amines were within acceptable distances (2.8-3.1 Å) for hydrogen bond formation for all three site chains (FIG. 2B). […]
Plasmids encoding the human version of channels Nav1.1, 1.6, and 1.7 were co-transfected with TRES GFP into HEK cell lines for whole-cell voltage clamp studies (American Type Culture Collection). […] Plasma membrane currents were recorded using borosilicate glass electrodes polished to resistances of […]. Sodium currents conducted by heterologously expressed Navs were recorded using the following solutions (in mM). […] Endogenous DRG sodium currents were recorded using an intracellular solution consisting of 70 CsCl, 70 CsF, 2 EGTA, 5 HEPES, and 5 NaCl; the pH was adjusted to 7.4 with CsOH. […]

T1 sequence (Q15858 whole entry): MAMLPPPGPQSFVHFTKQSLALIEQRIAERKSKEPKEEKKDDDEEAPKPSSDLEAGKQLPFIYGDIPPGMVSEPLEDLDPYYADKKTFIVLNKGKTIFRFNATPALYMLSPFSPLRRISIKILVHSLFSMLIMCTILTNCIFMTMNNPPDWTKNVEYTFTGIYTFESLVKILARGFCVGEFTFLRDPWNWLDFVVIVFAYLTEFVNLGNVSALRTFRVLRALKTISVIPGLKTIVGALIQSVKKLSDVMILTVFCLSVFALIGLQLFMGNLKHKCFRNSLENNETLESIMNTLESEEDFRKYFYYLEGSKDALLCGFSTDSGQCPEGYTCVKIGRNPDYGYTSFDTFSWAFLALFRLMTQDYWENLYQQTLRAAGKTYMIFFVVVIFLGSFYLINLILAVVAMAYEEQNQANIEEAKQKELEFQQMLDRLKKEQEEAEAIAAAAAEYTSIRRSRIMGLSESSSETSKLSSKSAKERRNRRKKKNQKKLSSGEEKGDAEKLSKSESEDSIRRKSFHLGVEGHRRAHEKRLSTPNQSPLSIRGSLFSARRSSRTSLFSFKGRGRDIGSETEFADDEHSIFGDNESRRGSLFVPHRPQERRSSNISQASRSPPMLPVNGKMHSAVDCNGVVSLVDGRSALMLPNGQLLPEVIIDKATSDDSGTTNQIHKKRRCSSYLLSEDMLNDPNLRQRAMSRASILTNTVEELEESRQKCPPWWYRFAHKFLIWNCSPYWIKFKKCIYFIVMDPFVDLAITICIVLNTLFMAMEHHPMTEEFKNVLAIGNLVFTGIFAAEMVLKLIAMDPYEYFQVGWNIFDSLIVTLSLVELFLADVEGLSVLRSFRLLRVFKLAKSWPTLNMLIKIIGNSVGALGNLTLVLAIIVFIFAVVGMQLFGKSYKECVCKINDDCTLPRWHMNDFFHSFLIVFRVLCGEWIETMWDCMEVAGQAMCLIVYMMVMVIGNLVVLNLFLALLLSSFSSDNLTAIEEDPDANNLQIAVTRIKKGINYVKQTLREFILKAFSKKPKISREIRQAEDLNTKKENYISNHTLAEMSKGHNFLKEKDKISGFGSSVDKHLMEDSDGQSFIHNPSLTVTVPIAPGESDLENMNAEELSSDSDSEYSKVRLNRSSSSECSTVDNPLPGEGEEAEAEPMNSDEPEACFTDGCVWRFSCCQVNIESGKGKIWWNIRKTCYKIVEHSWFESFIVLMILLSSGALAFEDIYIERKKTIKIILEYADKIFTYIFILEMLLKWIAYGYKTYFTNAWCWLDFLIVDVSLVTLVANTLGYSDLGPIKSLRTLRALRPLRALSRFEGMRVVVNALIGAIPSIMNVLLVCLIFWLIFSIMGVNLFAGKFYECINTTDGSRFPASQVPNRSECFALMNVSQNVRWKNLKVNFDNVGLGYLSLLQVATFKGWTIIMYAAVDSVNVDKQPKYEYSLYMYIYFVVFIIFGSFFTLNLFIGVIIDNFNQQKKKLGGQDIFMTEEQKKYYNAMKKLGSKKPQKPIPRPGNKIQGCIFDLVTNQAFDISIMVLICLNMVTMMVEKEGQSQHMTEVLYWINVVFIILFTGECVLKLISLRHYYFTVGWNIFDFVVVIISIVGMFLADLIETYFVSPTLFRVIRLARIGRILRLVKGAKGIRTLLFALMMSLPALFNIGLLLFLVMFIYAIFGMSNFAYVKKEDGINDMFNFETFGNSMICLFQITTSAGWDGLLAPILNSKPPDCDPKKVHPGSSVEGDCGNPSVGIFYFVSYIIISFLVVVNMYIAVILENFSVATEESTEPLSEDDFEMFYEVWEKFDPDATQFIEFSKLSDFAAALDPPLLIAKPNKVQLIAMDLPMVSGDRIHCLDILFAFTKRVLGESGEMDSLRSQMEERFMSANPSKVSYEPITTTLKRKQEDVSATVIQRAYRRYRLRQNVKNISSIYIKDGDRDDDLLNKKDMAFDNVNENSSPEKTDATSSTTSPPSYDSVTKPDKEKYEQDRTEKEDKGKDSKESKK

Consider `CC/C(=C(\c1ccccc1)c1ccc(OCCNC)cc1)c1ccccc1` [ND-Tam, 2-[4-[(Z)-1,2-diphenylbut-1-enyl]phenoxy]-N-methylethanamine], for which the slope of concentration-dependence stood at 2.1.
